Literature values as cited in patent US20210214291A1, “Rapid Thermal Isomerization of Lycopene” (priority 2020, published 2021).
Where two headings read alike, the source gives them in different places.

Experiments:
[1] = test system: super oxide dismutase (SOD) activity; conditions: for increase in SOD activity: patients
[2] = organic solvents, 24 hrs

Compound	increase in SOD activity ([1]; daily 6 mg for 8 wks) [units per milliliter]	increase in SOD activity ([1]; daily 15 mg for 8 wks) [units per milliliter]	reduction in C-reactive protein (CRP) levels ([1]; high dose group (15 mg daily, 8 wks)) [%]	isomerization ratio to the cis-isomer ([2]; 4 C) [%]	isomerization ratio to the cis-isomer ([2]; 50 C) [%]
CC(C)=CCC/C(C)=C/C=C/C(C)=C/C=C/C(C)=C/C=C/C=C(C)/C=C/C=C(C)/C=C/C=C(\C)CCC=C(C)C [lycopene]	1.73	2.37	57	–	–
CC(C)=CCC/C(C)=C/C=C/C(C)=C/C=C/C(C)=C/C=C/C=C(C)/C=C/C=C(C)/C=C/C=C(\C)CCC=C(C)C [trans-lycopene]	–	–	–	11.4	77.8
